# Results from US20180326022A1, “COMPOSITIONS AND METHODS FOR IMPROVING HEART FUNCTION AND TREATING HEART FAILURE” (The Trustees of the University of Pennsylvania, priority 2017, published 2018).
# What was measured:
# human myocytes = test: Nanoindentation stiffness measurements; assay type: cell-based; conditions: failing human myocytes; 10 μM, 2 hours
# Procedure: Viable myocytes were concentrated by gravity (5-7 min) and supernatant was aspirated to remove dead cells. Myocytes were resuspended in NT solution containing 1 mM Ca^2+ and concentrated by gravity (5-7 min) again. Cardiomyocytes used acutely were maintained in NT solution for up to 6 hours. Myocytes were treated with 10 μM parthenolide (Fisher Scientific NC9013142 or Sigma P0667) or 10 μM colchicine (Sigma) at room temperature in NT solution for 2 hours. Experiments were performed within 6 hours of isolation, except for those involving viral transduction in cultured cells.
# MatTek glass bottom dish was coated 5 μl of 0.5 mg/ml laminin and air dried for 10 min. Culture medium was F-10 (1×) Nutrient Mixture (Ham) [+] L-Glutamine (Life Technologies, 11550-043) supplemented with insulin-transferrin selenium-X (Gibco, 51500-056), 20 mM HEPES, 1 μg/μl primocin (Invivogen, ant-pm-1), 0.4 mM extra CaCl2, 5% FBS, 25 μM cytochalasin D (Cayman, 11330). Viable myocytes were concentrated and a proper amount of medium was added in culture so that neighboring cells were not in direct contact. […]
# Mechanical properties at the microscopic scale were measured using nanoindentation (Piuma, Optics11, The Netherlands). […] The Young's moduli were calculated automatically by the software, by fitting the force vs. indentation curve to the Hertz equation. […]
# isolated cardiomyocytes = test: Atomic force microscopy viscoelasticity (Standard Linear Solid Model); assay type: cell-based, rat; conditions: mean(SEM)
# Procedure: The elastic modulus of isolated cardiomyocytes was measured using AFM indentation. Optical microscopy and AFM were performed simultaneously using an MFP3D AFM (Asylum Research) combined with an inverted Nikon TE-2000U microscope equipped with a Nikon 100×, 1.49 NA objective. TTL expression was determined by dsRED fluorescence captured via 532 nm laser excitation (CrystaLaser) and a CCD camera (Cascade-512B, Photometrics) at 900 ms exposure time controlled through the NIS Elements software package. […] Modulus characterization of myocytes was performed using 4.26 μm radius (R below) SiO2 microparticle epoxied to SiN cantilevers with nominal spring constant 0.03 N/m (CP-PNPS-SiO-A, Nano And More, USA). Cantilever spring constants were manually calibrated in air by thermal vibrations using the MFP3D prior to each experiment using a clean glass substrate. Inverse optical lever sensitivity was determined in myocyte buffer solution prior to each round of measurements.
# Elastic moduli were determined by fitting the indentation curve to the Hertz model (Eq. 17) adjusted for a spherical indenter using the Asylum Research built in analysis software.
# E is the elastic modulus, υ, is the cell Poisson ratio and δ is the indentation depth. Transverse compression of the cardiomyocyte is performed over a range of indentation speeds and the indentation speed is divided by the total indentation depth to obtain an effective indentation rate, f. Viscosity and velocity dependent elastic moduli were then derived by fitting each myocyte to a Standard Linear Solid Model: […]
# [1] = tested on: primary adult rat cardiomyocytes; test: Cell contractility (sarcomere shortening, 1 Hz pacing); assay type: cell-based; conditions: rat cardiomyocytes, 1 Hz; PTL 10 μM 2 hours
# Procedure: (§1) Viral constructs were permitted to express for 24-72 hours with Moi=100-200. Parthenolide (Fisher Scientific NC9013142) treatment was carried out at room temperature for 2 hours at 10 μM. All experiments were performed within 48 hours of isolation, except those involving shTTL, which were allowed 72 hours to improve knockdown efficiency.
# Experiments were performed in custom-fabricated cell chambers (Ionoptix) mounted on an LSM Zeiss 780 inverted confocal microscope using a 40× oil 1.4 NA objective and transmitted light camera (IonOptix MyoCam-S). For contractility assays, cells were maintained in NT solution and electrical field stimulation was provided at 1 Hz with a myopacer (IonOptix MYP100) through platinum electrodes lowered into the bath. Sarcomere length was measured optically by Fourier transform analysis (IonWizard, IonOptix). After 15 s of 1 Hz pacing to achieve steady state, five traces were recorded and analyzed.
# detyrosinated tubulin = test: Western blotting of cardiomyocyte lysates (TTL, α-, detyr-, tyr-tubulin); assay type: cell-based; conditions: rat cardiomyocytes; PTL treatment; shTTL; short term EpoY
# Procedure: as §1
# For analysis of proteins expression levels quantitative Western blots were performed using infrared fluorescence imaging on an Odyssey Imager (LI-COR). Cell homogenates were prepared in ice-cold IGEPAL lysis buffer. After 1 freezing cycle lysates were spun at 18,000×g for 5 min. Aliquots of supernatants were mixed with 4× sample buffer (LI-COR, 928-40004) containing 10% BME, boiled for 6 min., and resolved on sodium dodecyl sulfate (SDS)-polyacrylamide gel electrophoresis Tris-glycine gels (Bio-Rad). Proteins were transferred to a membrane on Mini Trans-Blot Cell (Bio-Rad), blocked 1 h in Odyssey Blocking Buffer (TBS) (LI-COR, 927-50000), and probed with the corresponding primary antibody (see list below) for 2 h at room temperature. Membranes were then rinsed with TBST 4 times for 5 min, and incubated with secondary antibodies (below) for 1.5 h at room temperature. Membranes were rinsed again with TBST and then imaged on Odyssey Imager. Image analysis was performed using Image Studio Lite software (LI-COR). Fluorescent band intensity was always normalized to GAPDH loading control. Analysis of human tissue samples for levels of detyrosinated tubulin was performed blinded to the experimental groups.
smiles,measurement,setting,value
"C=C1C(=O)O[C@H]2[C@H]1CC/C(C)=C/CC[C@@]1(C)O[C@@H]21 [PTL, 4,5-epoxygermacra-1(10),11(13)-dien-12,6-olactone]",viscoelasticity (Emax and EΔ),human myocytes,robustly reduced viscoelasticity
same,η (Pa*s),isolated cardiomyocytes; SLSM-fit derived viscosity,38.8(8.0) Pa*s
same,E2 (Pa),isolated cardiomyocytes; velocity-dependent elastic modulus,215.3(25.0) Pa
same,E1 (Pa),isolated cardiomyocytes; velocity-independent elastic modulus,170.6(22.5) Pa
same,Resting SL (μm),[1],1.803 μm
same,Vmax (μm/s),[1],−5.35 μm/s
same,Vmin (μm/s),[1],4.28 μm/s
same,ΔSL (μm),[1],0.201 μm
same,alpha / total tubulin levels (western blot),detyrosinated tubulin,no significant change
same,detyrosinated tubulin (western blot),detyrosinated tubulin,significant drop
